Test results published in PubChem BioAssay AID1996.
In brackets after ≈: the same amount, converted by molar mass.

Details: buffer; pH 7.4; 200.0 µM

| SMILES | solubility kinetic [µg/mL] |
| --- | --- |
| Cc1ccccc1N1CC(C(=O)Nc2ccc3c(c2)OCO3)CC1=O (stereo unspecified) | 43.4 (≈ 128 µM) |
| COc1ccc(C2=NCCNC(C(F)(F)F)=C2)cc1 | > 40.5 |
| O=C(COC(=O)C1CC2CCCC(C1)C2=O)Nc1cccc(F)c1 (stereo unspecified) | > 50 |
| O=C1NCC(COc2cccc3ccccc23)O1 (stereo unspecified) | > 36.5 |
| O=[N+]([O-])c1ccc(CN2CC=C(c3ccccc3)CC2)cc1 | 6.8 (≈ 23.1 µM) |
| COc1cc(NC(=O)COC(=O)CC2CC3CCC2C3)cc(OC)c1 (stereo unspecified) | 14.6 (≈ 42 µM) |
| COc1ccc(C(=O)COc2ncnc3cc(Cl)ccc23)cc1 | < 0.4 |
| FC(F)(F)c1cccc(CNC2CCN(Cc3ccccc3)CC2)c1 | 38.6 (≈ 111 µM) |
| Cc1ccc(-c2nc(C(=O)O)cs2)cc1 | 29.5 (≈ 135 µM) |
| CC(=O)Nc1ccc(SCc2ncc(-c3ccccc3)o2)cc1 | 45.3 (≈ 140 µM) |
| COc1ccc(NS(=O)(=O)c2cc(NC(=O)c3cncc(Br)c3)ccc2OC)cc1 | 21.9 (≈ 44.5 µM) |
| CCOc1ccc2nc(SCC(=O)Nc3cc(C)on3)c(C)cc2c1 | < 0.3 |
| CN(c1cccc(NS(=O)(=O)c2ccccc2)c1)S(C)(=O)=O | > 51.1 |
| N#CCOC(=O)/C=C/c1ccc2c(c1)OCO2 | 4.6 (≈ 19.9 µM) |
| Cc1nc2ccc(C(=O)Nc3ccc(N(C)C)cc3)cc2s1 | 4.1 (≈ 13.2 µM) |
| CSc1ccc(CNCCCSc2ncccn2)cc1.Cl | > 51.3 |
| Cc1ccc(OCC(=O)Nc2ccc3c(c2)C(=O)NC3=O)cc1 | 2.4 (≈ 7.73 µM) |
| CCOC(=O)c1cn2nc(Oc3ccccc3)ccc2n1 | > 42.5 |
| O=C(Nc1ccccc1Cl)c1csc(-c2cccnc2)n1 | 4.3 (≈ 13.6 µM) |
| O=C(NC12CC3CC(CC(C3)C1)C2)c1cc(F)c(F)cc1Cl | 0.7 (≈ 2.15 µM) |
| OCC[NH+](CCO)CC(O)COc1ccc(Br)cc1.[Cl-] (stereo unspecified) | > 55.6 |
| S=C(NCCc1cccc(Cl)c1)NC1CCCCC1 | 10.5 (≈ 35.4 µM) |
| Cc1ccc(C)c(NC(=S)N2CCN(S(C)(=O)=O)CC2)c1 | > 49.1 |
| Cc1ccccc1-c1nc(-c2ccc(Br)o2)no1 | 1 (≈ 3.28 µM) |
| Cc1ccc(S(=O)(=O)NCCc2ccncc2)cc1[N+](=O)[O-] | 46.2 (≈ 144 µM) |

| SMILES | solubility kinetic [µg/mL] |
| --- | --- |
| COc1ccc(NC(=O)CNC(=O)C2CCCCC2)cc1OC | > 48.1 |
| COC(=O)c1ccc(C(=O)Nc2ccc(C(C)C)cc2N)cc1 | 2.5 (≈ 8 µM) |
| COc1ccc(CNc2ccc(Cl)cc2)cc1Cn1ccnc1 | 31.1 (≈ 94.9 µM) |
| CCN(C(=O)CN1CCC(C(=O)OC)CC1)c1c(N)n(Cc2ccccc2)c(=O)[nH]c1=O | > 66.5 |
| CC(=O)c1c(C)[nH]c(C(=O)Nc2nccs2)c1C | 20.8 (≈ 79 µM) |
| CCOc1c(Nc2ccc(C(C)C)cc2)c(=O)c1=O | 25.3 (≈ 97.6 µM) |
| O=C(Nc1ccncc1)c1ccc(Cl)c([N+](=O)[O-])c1 | > 41.7 |
| COc1ccc(-c2cc(C(=O)N3CCCC3)no2)cc1OC | 43.8 (≈ 145 µM) |
| Cc1ccc(S(=O)(=O)NC(C)(C)CSc2ncccn2)cc1 | > 50.6 |
| Cn1ncc([N+](=O)[O-])c1C(=O)Nc1ccccc1 | > 36.9 |
| CSc1cccc(NC(=S)Nc2ccc(F)cc2)c1 | 34.5 (≈ 118 µM) |
| COC(=O)c1ccc(COc2ccc(/C=N/O)cc2)o1 | > 41.3 |
| Cc1ccc(N(CC2CO2)S(=O)(=O)c2ccccc2[N+](=O)[O-])cc1 (stereo unspecified) | 36.7 (≈ 105 µM) |
| CC(=O)Nc1ccc(C)c(NC(=S)Nc2ccc(F)cc2)c1 | 42.6 (≈ 134 µM) |
| N#Cc1cc(N)ccc1-n1cccc1 | 27.2 (≈ 148 µM) |
| O=C(Cc1ccccc1)Nc1ccc(NC(=O)c2cccs2)cc1 | < 0.4 |
| Cn1cccc1C(=O)NC1CCCCC1 | > 30.9 |
| CCOc1ccc(N2CC(C(=O)NC3CCCCCC3)CC2=O)cc1 (stereo unspecified) | 15.2 (≈ 44.1 µM) |
| CC(C(=O)N1CCCC1)N(C)CC(=O)Nc1cccc(F)c1 (stereo unspecified) | 37 (≈ 120 µM) |
| Nc1cc(C(=O)O)ccc1Sc1ccccc1C(=O)O | > 43.4 |
| Nc1nc(Cl)cc(Oc2ccccc2F)n1 | 15.6 (≈ 65.1 µM) |
| CC(C)(C)c1ccc(NC(=S)NCc2cccnc2)cc1 | 40.8 (≈ 136 µM) |
| CCN(CC(=O)NCCC1=CCCCC1)S(=O)(=O)c1ccccc1 | > 52.6 |
| O=C(Nc1ncccn1)c1ccc([N+](=O)[O-])cc1[N+](=O)[O-] | 38.7 (≈ 134 µM) |
| NC(=O)Cn1cc(C(=O)c2ccccc2)c2ccccc21 | 10.8 (≈ 38.8 µM) |

| SMILES | solubility kinetic [µg/mL] |
| --- | --- |
| Cc1ccccc1S(=O)(=O)NCC1CCCO1 (stereo unspecified) | 27.1 (≈ 106 µM) |
| COc1ccc(C(=O)Cn2cc([N+](=O)[O-])nc2C)cc1 | 13.5 (≈ 49 µM) |
| O=C1C(Cl)=C(N2CCCCCC2)C(=O)N1c1ccc(Cl)cc1 | 26.2 (≈ 77.2 µM) |
| N#CC1(NC(=O)COc2ccc(C(N)=O)cc2)CCCC1 | > 43.1 |
| Clc1ccccc1C1Nc2cccc3cccc(c23)N1 | 7.5 (≈ 26.7 µM) |
| Cc1nc(NC(=O)COC(=O)CNC(=O)c2ccco2)c(Cl)cc1Cl | > 57.9 |
| O=C(Nc1cccc2cccnc12)c1cc(F)c(F)cc1Cl | < 0.3 |
| Br.O=C(O)c1ccccc1CSC1=NCCS1 | > 50.1 |
| Cc1cnc(C(=O)OCC(=O)Nc2ccccc2[N+](=O)[O-])cn1 | > 47.4 |
| CC1(C)CC(=O)c2cc(NC(=O)c3ccc(F)cc3)c(=O)oc2C1 | 2 (≈ 6.07 µM) |
| O=C(CCCCl)N1CCc2[nH]c3ccccc3c2C1 | > 41.5 |
| CC(=O)c1ccc(N2CCN(C(=O)c3cc4c(s3)CCCC4)CC2)cc1 | 10.7 (≈ 29 µM) |
| Cc1cc(C(=O)COc2ccccc2C(N)=O)c(C)n1C1CC1 | 7 (≈ 22.4 µM) |
| CC(C)Oc1ccc(CNC(=O)Oc2ccccc2)cc1 | 25.5 (≈ 89.4 µM) |
| Cc1cccc(C)c1OCCN1CCOCC1.O=C(O)C(=O)O | 42.1 |
| Cc1nc2ccccc2c(=O)n1-c1cccc(C(F)(F)F)c1 | 43.6 (≈ 143 µM) |
| CN1CCN(C(=S)C(=O)Nc2ccccc2)CC1 | 38.2 (≈ 145 µM) |
| Cc1ccc(C(=O)OCC(=O)NCCC2=CCCCC2)cc1N | 21 (≈ 66.4 µM) |
| Cc1n(Cc2ccccc2)c2cc([N+](=O)[O-])ccc2[n+]1Cc1ccccc1.[Cl-] | > 59.1 |
| NCCc1nnc(SCC(=O)Nc2cccc(Cl)c2)o1 | > 46.9 |
| CC(Oc1ccccc1)C(=O)N1CCN=C1SCc1ccccc1 (stereo unspecified) | 19.9 (≈ 58.5 µM) |
| Cn1cnc2cc(NCc3ccccc3O)ccc21 | 36.9 (≈ 146 µM) |
| COc1cc2[nH]c(C(=O)N3CCN(C)CC3)cc2c(OC)c1OC | 33.8 (≈ 101 µM) |
| O=C(c1ccc2ccccc2c1)N1CCN(Cc2ccccc2)CC1 | > 49.6 |
| CC(CCc1ccccc1)NC(=O)c1cccc(F)c1 (stereo unspecified) | 36.6 (≈ 135 µM) |

| SMILES | solubility kinetic [µg/mL] |
| --- | --- |
| Cc1ccc(OCCn2c(=S)[nH]c3ccccc32)c(C(C)C)c1 | < 0.3 |
| COCCN(C(=S)Nc1c(C)cccc1C)C(C)c1ccco1 (stereo unspecified) | 47.1 (≈ 142 µM) |
| O=[N+]([O-])c1ccc(N2CCN(CC3CCCCC3)CC2)cc1 | 2.1 (≈ 6.92 µM) |
| Cc1ccc(C(=O)NCCCN2CCOCC2)c(Cl)c1 | > 44.5 |
| CC(C)(C)C1COc2ccccc2N1C(=O)c1ccccc1Cl (stereo unspecified) | < 0.7 |
| CC(C)N(C(=O)COC(=O)c1ccc([N+](=O)[O-])cc1)c1ccccc1 | 1.1 (≈ 3.21 µM) |
| COc1ccc(C(=O)c2sc(Nc3ccccc3)nc2C)cc1 | 3.4 (≈ 10.5 µM) |
| O=C(Nc1ccc2c(c1)OCO2)C1CCCCC1 | > 37.1 |
| COCc1cc(C)nc(SCc2ccccc2)c1C#N | 3.4 (≈ 12 µM) |
| Cc1ccc(C)c(NC(=O)CCN2CC(C)CC(C)C2)c1 (stereo unspecified) | 32.7 (≈ 113 µM) |
| COc1ccc2c(c1OC)C(=O)N(c1cccc(/C=C/C(=O)O)c1)C2 | > 50.9 |
| Cc1nc(SCC(=O)N2CCNC2=O)c2ccccc2n1 | > 45.4 |
| O=c1c2ccccc2ncn1CCOc1ccccc1[N+](=O)[O-] | 3.2 (≈ 10.3 µM) |
| COc1ccc(CNC(=O)COC(=O)C2CC2C)cc1OC (stereo unspecified) | > 46.1 |
| O=C(CN1CCOCC1)Nc1nc(-c2ccccc2)cs1 | 42.2 (≈ 139 µM) |
| CNc1nc2cccnc2s1 | > 24.8 |
| O=C(CSc1nc(O)cc(=O)[nH]1)N1CCOCC1 | > 40.7 |
| COc1cc(C(=O)Nc2ccc(C)cn2)c([N+](=O)[O-])cc1OC | > 47.6 |
| O=C(Cc1ccccc1)Nc1cc2c(cc1Cl)OCCCO2 | 5.5 (≈ 17.3 µM) |
| CCOc1ccc(N2C=Nc3ccc(OCC)cc3C2)cc1 | 11.6 (≈ 39.1 µM) |
| N#Cc1c(N2CCSCC2)nsc1-c1ccccc1Cl | 3.4 (≈ 10.6 µM) |
| COc1ccc(OC)c(CNC(=O)CCc2cn(C)c3ccccc23)c1 | 12.7 (≈ 36 µM) |
| Cc1cccc(NC(=O)Nc2ccc(F)cc2)n1 | 1.6 (≈ 6.52 µM) |
| O=S(=O)(NCc1ccco1)c1ccc(Cl)cc1Cl | 35 (≈ 114 µM) |
| Nc1nc(SCC(=O)O)[nH]c(=O)c1NC(=O)c1ccco1 | > 46.5 |

| SMILES | solubility kinetic [µg/mL] |
| --- | --- |
| NC(=O)CSc1nc(-c2ccccc2)nc2c1CCCC2 | 0.5 (≈ 1.67 µM) |
| CC(=O)Nc1ccc(N2C(=O)CSC2c2ccccc2)cc1 (stereo unspecified) | > 46.9 |
| CC(C(=O)O)c1ccc2c(c1)[nH]c1ccc(Cl)cc12 (stereo unspecified) | > 41.1 |
| COc1ccc(NC(=O)c2ccc(NC(=O)CN3CCC(C(N)=O)CC3)cc2)cc1 | 8.1 (≈ 19.7 µM) |
| CN(C)c1nc(=S)nc(NCc2ccccc2)[nH]1 | > 39.2 |
| Cc1ccc(C)c(S(=O)(=O)NCc2ccc3c(c2)OCO3)c1 | 47.7 (≈ 149 µM) |
| CCCCCCCc1c(C#N)c(N)[nH]c(=S)c1C#N | 31.5 (≈ 115 µM) |
| O=C(CSc1nnc(-c2ccccc2)o1)NC1CC1 | > 41.3 |
| Cc1ccc(/C=C2/SC(=S)N(CCC(=O)N3CCOCC3)C2=O)cc1 | < 0.4 |
| Cc1c(/C=N/O)c2ccccn2c1C=O | > 30.3 |
| CC(c1ccccc1)N1CCN(C(=O)CCl)CC1.Cl (stereo unspecified) | 43.3 |
| Cc1ccc(CN2CCN(Cc3ccc(O)cc3)CC2CCO)o1 (stereo unspecified) | > 49.6 |
| CCN(Cc1ccncc1)C(=O)c1ccc2c(c1)S(=O)(=O)c1ccccc1C2=O | 42 (≈ 103 µM) |
| COc1ccccc1N(CCC#N)C(=S)Nc1ccc(S(=O)(=O)N2CCOCC2)cc1 | > 69.1 |
| CCOc1ccccc1NC(=O)NCCN1CCCCC1 | > 43.7 |
| COc1cccc(C(O)c2nc3ccccc3n2C(C)C)c1OC (stereo unspecified) | > 49 |
| Cc1ccc(C(=O)Nc2ccc(S(=O)(=O)N3CCCC3)cc2)s1 | 7.2 (≈ 20.5 µM) |
| O=P(Nc1ccccc1)(Oc1ccccc1)Oc1ccccc1 | < 0.7 |
| Cc1ccc2c(c1)NC(=O)c1cccc([N+](=O)[O-])c1CO2 | 7 (≈ 24.6 µM) |
| CC(C)c1ccc(CNC(=O)C(=O)NCCCn2ccnc2)cc1 | 45.4 (≈ 138 µM) |
| Cc1ccc(CNC(=O)CCSCc2ccccc2C)cc1 | 6.5 (≈ 20.7 µM) |
